Experimental data taken from US12459997B2, “Compounds and methods targeting interleukin-19” (Eli Lilly and Company, priority 2018, dated 2025).

Columns and labels:
[1] = tested on: Ps0 patients; test: Ps0 study in anti-IL-17 treatment groups: serum IL-19 and PASI; assay type: in vivo, human; conditions: for number of patients achieving at least PASI 75: title: week 16, head: Week 2
Description: (§1) According to an exemplified embodiment, a sandwich ELISA assay for the sensitive detection of IL-19 is provided herein. According to an exemplified embodiment, a first IL-19 antibody (selected from Table 1, 2 or 3) is utilized as an IL-19 capture antibody and a second IL-19 antibody (selected from Table 1, 2 or 3) is utilized as an IL-19 reporter antibody. […] According to some embodiments, one milligram of the first IL-19 antibody (the capture antibody) is biotinylated using Pierce biotinylation kit (Cat #) and one milligram of the second IL-19 antibody (the reporter antibody) is labeled with ruthenium using MesoScale Discovery (MSD) kit for electrochemiluminescent (ECL) detection. According to such embodiment, labeled antibodies are evaluated using MALDI-TOF to ensure suitable labeling, and then diluted in 50% glycerol and stored at −20° C. prior to use.
(§2) Streptavidin-coated 96-well MSD plates are washed three times with TBST (Tris buffered saline containing 10 mmol/L Tris pH 7.40, 150 mmol/L NaCl with 1 mL Tween 20/L) and then blocked with TBS-T plus 1% BSA for 1 hour at room temperature. Plates are again washed and wells are then incubated with biotinylated IL-19 capture antibody (1 mg/L) for 1 hour. Thereafter, plates are again washed prior to patient sample testing.
(§3) During patient sample testing, a standard curve is generated using 50 μL of recombinant human IL-19 control standard (serially diluted IL-19 recombinant protein ranging from 100-0.0001 ng/L, and including a zero blank, in assay buffer of 50 mmol/L HEPES, pH 7.40, 150 mmol/L NaCl, 10 mL/L Triton X-100, 5 mmol/L EDTA, and 5 mmol/L EGTA). […] Patient samples (which, according to the present invention, may include blood, serum or plasma) are diluted 1:4 in assay buffer and added to respective wells. The plate is incubated overnight at 4° C. Following incubation, wells are aspirated and washed 3 times with TBST. Thereafter, 50 μL of ruthenium-labeled IL-19 detection antibody (0.5 mg/L) is added to the wells for a 1-hour incubation at room temperature. Following incubation, wells are aspirated and washed 3 times with TBST. Thereafter, 150 μl of 2×MSD read buffer is added. Ruthenium electrochemiluminescence in the wells is detected using a MSD Sector 6000 plate reader. Data is analyzed and IL-19 MSD immunoassay calibration curve fitting is performed using MesoScale Discovery software. SAS® software version 9.4 (PROC MIXED) is used for assessing treatment effects on IL-19 levels using a mixed effects model with an unstructured covariance matrix and log10 transformed IL-19 concentrations (SAS. Version 9.4 for UNIX; SAS Institute Inc.: Cary, N.C., 2016). Statistical analysis is generated with the ggplot and pROC packages using R version 3.3.3 statistical computing environment (www.R-project.org, Vienna, Austria, 2017).
The study includes five treatment group doses of: 10 mg (n=24), 25 mg (n=23), 75 mg (n=26), or 150 mg (n=28) of ixekizumab or placebo (n=24). Administration of all treatment doses is subcutaneous, and doses are administered starting at week 0 and every 2 weeks thereafter up to week 16 (inclusive).

[2] = tested on: PsA patients; test: PsA study in anti-IL-17 treatment groups: serum IL-19 and PASI; assay type: in vivo, human; conditions: for IL-19 (geometric mean) serum levels: subcutaneous
Description: as §1, §2, §3
A study of IL-19 levels, in serum of 309 PsA patients treated with a therapeutic antibody targeting IL-17, ixekizumab, is performed. The study includes three treatment groups: (i.) anti-IL-17 treatment group, administered ixekizumab 160 mg at baseline followed by an 80 mg dose administered every two weeks thereafter for 12 weeks (n=103); (ii.) anti-IL-17 treatment group, administered ixekizumab 160 mg at baseline followed by an 80 mg dose administered every four weeks thereafter for 12 weeks (n=107); or (iii.) placebo (n=105). Administration of all treatment doses is subcutaneous. […] Serum IL-19 concentration levels are presented in Table 21; week 4 and 12 PASI prognostic values showing correlations of IL-19 serum levels and PASI in patients (21 ng/L, indicates the upper limit of the normal range of IL-19 in healthy subjects) are presented in Tables 22 and 23, respectively.

[3] = tested on: Ps0 patients; conditions: cited from earlier work
[4] = 10 mg subcutaneous every 2 weeks, week 16
[5] = 25 mg subcutaneous every 2 weeks, week 16
[6] = 75 mg subcutaneous every 2 weeks, week 16
[7] = 150 mg subcutaneous every 2 weeks, week 16
[8] = Q2W, IL-19 at week 4 and PASI at week 12
[9] = Q2W, IL-19 at week 12 and PASI at week 12
[10] = Q4W, IL-19 at week 4 and PASI at week 12
[11] = Q4W, IL-19 at week 12 and PASI at week 12

Question: For ixekizumab, which “IL-19 serum levels (geometric mean)” value ([1]; 10 mg subcutaneous every 2 weeks, Week 0 (baseline)) is on record?
Answer: Its value is 111.6 pg/mL.

Question: What about the “IL-19 serum levels (geometric mean)” value ([1]; 10 mg subcutaneous every 2 weeks, Week 2) of the same substance?
Answer: Its value is 45.3 pg/mL.

Question: And the “number of patients achieving at least PASI 75” value (from here on “number of patients achieving”) ([1]; 10 mg subcutaneous every 2 weeks, n = 19)?
Answer: Its value is 5.

Question: And the “% of patients with serum IL-19 concentration ≤ 21 pg/mL” value (“% of patients” for short) [1, 4]?
Answer: Its value is 42.1% (8/19).

Question: What about the “% patients with serum IL-19 concentration ≤ 21 pg/mL achieving at least PASI 75” value [1, 4] of the same substance?
Answer: The value was 62.5% (5/8).

Question: And the “% patients with serum IL-19 concentration ≤ 21 pg/mL not achieving at least PASI 75” value [1, 4]?
Answer: Its value is 37.5% (3/8)^.

Question: And the “IL-19 serum levels (geometric mean)” value [1, 4]?
Answer: The value was 57.3 pg/mL.

Question: What about the “IL-19 serum levels (geometric mean)” value ([1]; 25 mg subcutaneous every 2 weeks, Week 0 (baseline)) of the same substance?
Answer: Its value is 89.0 pg/mL.

Question: What about the “IL-19 serum levels (geometric mean)” value ([1]; 25 mg subcutaneous every 2 weeks, Week 2) of the same substance?
Answer: The value was 22.3 pg/mL.

Question: And the “number of patients achieving” value ([1]; 25 mg subcutaneous every 2 weeks, n = 20)?
Answer: The value was 16.

Question: And the “% of patients” value [1, 5]?
Answer: Its value is 70% (14/20).

Question: What about the “% patients with serum IL-19 concentration ≤ 21 pg/mL achieving at least PASI 75” value [1, 5] of the same substance?
Answer: The value was 92.9% (13/14).

Question: What about the “% patients with serum IL-19 concentration ≤ 21 pg/mL not achieving at least PASI 75” value [1, 5] of the same substance?
Answer: The value was 7.1% (1/14).

Question: And the “IL-19 serum levels (geometric mean)” value [1, 5]?
Answer: Its value is 13.6 pg/mL.

Question: What about the “IL-19 serum levels (geometric mean)” value ([1]; 75 mg subcutaneous every 2 weeks, Week 0 (baseline)) of the same substance?
Answer: The value was 86.7 pg/mL.

Question: And the “IL-19 serum levels (geometric mean)” value ([1]; 75 mg subcutaneous every 2 weeks, Week 2)?
Answer: The value was 11.6 pg/mL.

Question: And the “number of patients achieving” value ([1]; 75 mg subcutaneous every 2 weeks, n = 24)?
Answer: The value was 21.

Question: And the “% of patients” value [1, 6]?
Answer: Its value is 91.7% (22/24)^.

Question: What about the “% patients with serum IL-19 concentration ≤ 21 pg/mL achieving at least PASI 75” value [1, 6] of the same substance?
Answer: The value was 86.4% (19/22).

Question: What about the “% patients with serum IL-19 concentration ≤ 21 pg/mL not achieving at least PASI 75” value [1, 6] of the same substance?
Answer: The value was 13.6% (3/22).

Question: What about the “IL-19 serum levels (geometric mean)” value [1, 6] of the same substance?
Answer: Its value is 9.4 pg/mL.

Question: And the “IL-19 serum levels (geometric mean)” value ([1]; 150 mg subcutaneous every 2 weeks, Week 0 (baseline))?
Answer: Its value is 87.1 pg/mL.

Question: And the “IL-19 serum levels (geometric mean)” value ([1]; 150 mg subcutaneous every 2 weeks, Week 2)?
Answer: The value was 13.9 pg/mL.

Question: And the “number of patients achieving” value ([1]; 150 mg subcutaneous every 2 weeks, n = 24)?
Answer: Its value is 22.

Question: What about the “% of patients” value [1, 7] of the same substance?
Answer: Its value is 92% (23/25).

Question: And the “% patients with serum IL-19 concentration ≤ 21 pg/mL achieving at least PASI 75” value [1, 7]?
Answer: The value was 95% (19/20).

Question: What about the “% patients with serum IL-19 concentration ≤ 21 pg/mL not achieving at least PASI 75” value [1, 7] of the same substance?
Answer: Its value is 5% (1/20).

Question: What about the “IL-19 serum levels (geometric mean)” value [1, 7] of the same substance?
Answer: The value was 11.9 pg/mL.

Question: And the “IL-19 (geometric mean) serum levels” value ([2]; Q2W: 160 mg at baseline, then 80 mg every two weeks, Week 0 (baseline))?
Answer: Its value is 23.0 pg/mL.

Question: What about the “IL-19 (geometric mean) serum levels” value ([2]; Q2W: 160 mg at baseline, then 80 mg every two weeks, Week 4) of the same substance?
Answer: Its value is 6.0 pg/mL.

Question: And the “IL-19 (geometric mean) serum levels” value ([2]; Q2W: 160 mg at baseline, then 80 mg every two weeks, Week 12)?
Answer: Its value is 6.1 pg/mL.

Question: What about the “% of patients” value ([2]; Q2W, IL-19 at week 4) of the same substance?
Answer: The value was 97.5% (79/81).

Question: And the “% patients with serum IL-19 concentration ≤ 21 pg/mL achieving at least PASI 75” value [2, 8]?
Answer: Its value is 72.2% (57/79).

Question: And the “% patients with serum IL-19 concentration ≤ 21 pg/mL not achieving at least PASI 75” value [2, 8]?
Answer: The value was 27.8% (22/79).

Question: What about the “% of patients” value ([2]; Q2W, IL-19 at week 12) of the same substance?
Answer: Its value is 96.7% (87/90).

Question: And the “% patients with serum IL-19 concentration ≤ 21 pg/mL achieving at least PASI 75” value [2, 9]?
Answer: The value was 73.1% (57/78).

Question: And the “% patients with serum IL-19 concentration ≤ 21 pg/mL not achieving at least PASI 75” value [2, 9]?
Answer: The value was 26.9% (21/78).

Question: And the “IL-19 (geometric mean) serum levels” value ([2]; Q4W: 160 mg at baseline, then 80 mg every four weeks, Week 0 (baseline))?
Answer: Its value is 31.3 pg/mL.

Question: And the “IL-19 (geometric mean) serum levels” value ([2]; Q4W: 160 mg at baseline, then 80 mg every four weeks, Week 4)?
Answer: The value was 7.6 pg/mL.

Question: And the “IL-19 (geometric mean) serum levels” value ([2]; Q4W: 160 mg at baseline, then 80 mg every four weeks, Week 12)?
Answer: Its value is 7.3 pg/mL.

Question: And the “% of patients” value ([2]; Q4W, IL-19 at week 4)?
Answer: The value was 90.8% (79/87).

Question: What about the “% patients with serum IL-19 concentration ≤ 21 pg/mL achieving at least PASI 75” value [2, 10] of the same substance?
Answer: Its value is 73.4% (58/79).

Question: What about the “% patients with serum IL-19 concentration ≤ 21 pg/mL not achieving at least PASI 75” value [2, 10] of the same substance?
Answer: The value was 26.6% (21/79).

Question: And the “% of patients” value ([2]; Q4W, IL-19 at week 12)?
Answer: Its value is 93.5% (87/93).

Question: What about the “% patients with serum IL-19 concentration ≤ 21 pg/mL achieving at least PASI 75” value [2, 11] of the same substance?
Answer: The value was 74.1% (60/81).

Question: What about the “% patients with serum IL-19 concentration ≤ 21 pg/mL not achieving at least PASI 75” value [2, 11] of the same substance?
Answer: Its value is 25.9% (21/81).

Question: And the “change of serum IL-19 in words” value ([2]; both ixekizumab treatment groups, sustained over the 12 week treatment)?
Answer: Its value is “lowering of IL-19 to near normal levels after 4 weeks”.

Question: And the “patients achieved a 75% reduction in PASI score (PASI 75)” value [3]?
Answer: The value was 90%.
